Measured values taken from patent US6800651B2 (Eli Lilly and Company, priority 2000, dated 2004).
Read-outs that look alike come from different tables or passages of the source. Each block holds one compound with its values, some of them ahead of it.

Experiments:
[1] = target: mGlu2 receptor (Homo sapiens, UniProt Q14416); assay: Potentiation of glutamate-induced increase in intracellular calcium with a mGluR2 expressing cell line (FLIPR); assay type: cell-based; design: expressed in transfected cells; host or cells: RGT cells (co-transfected with GLAST), stably transfected with Galpha15; conditions: for Emax / Emax at 1 µM / Emax at 3 µM: read-out: % Maximal Response (mean ± SD, n = 2); for Emax at 1 µM: 1 μM compound, no agonist, glutamate series 30 μM to 10 nM; for Emax at 3 µM: 3 μM compound, Buffer (no agonist)
mGlu2 receptor, sequence (Q14416 19-872): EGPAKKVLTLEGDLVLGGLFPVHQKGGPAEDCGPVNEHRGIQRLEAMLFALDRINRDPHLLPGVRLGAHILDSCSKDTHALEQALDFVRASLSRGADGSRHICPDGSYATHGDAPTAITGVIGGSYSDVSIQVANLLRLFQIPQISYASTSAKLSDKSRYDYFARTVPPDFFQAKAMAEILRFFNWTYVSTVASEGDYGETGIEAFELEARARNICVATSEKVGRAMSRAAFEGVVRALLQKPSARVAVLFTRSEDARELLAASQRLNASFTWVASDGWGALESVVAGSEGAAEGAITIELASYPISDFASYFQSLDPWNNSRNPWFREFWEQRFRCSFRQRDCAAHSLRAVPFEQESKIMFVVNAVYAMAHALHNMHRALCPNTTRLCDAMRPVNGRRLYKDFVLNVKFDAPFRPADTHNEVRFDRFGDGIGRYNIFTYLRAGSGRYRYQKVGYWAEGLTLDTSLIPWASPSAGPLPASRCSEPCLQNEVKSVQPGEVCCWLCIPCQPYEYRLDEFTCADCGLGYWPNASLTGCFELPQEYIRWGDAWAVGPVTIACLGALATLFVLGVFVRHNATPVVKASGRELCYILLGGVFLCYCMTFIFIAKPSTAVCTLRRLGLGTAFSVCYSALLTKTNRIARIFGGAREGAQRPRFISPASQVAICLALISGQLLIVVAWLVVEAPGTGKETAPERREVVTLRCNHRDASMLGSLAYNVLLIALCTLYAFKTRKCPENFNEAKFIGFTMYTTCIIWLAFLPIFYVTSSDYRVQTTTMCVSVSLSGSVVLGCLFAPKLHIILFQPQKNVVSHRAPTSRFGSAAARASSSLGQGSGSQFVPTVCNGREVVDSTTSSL
Method: Potentiation of Glutamate-Induced Increase in Intracellular Calcium with a mGluR2 Expressing Cell Line.
Cell lines expressing human mGlu2 receptors were derived as previously described (Desai, Burnett, Mayne, Schoepp, Mol. Pharmacol. 48, 648-657, 1995) and cultured in DMEM with 5% dialyzed fetal bovine serum, 1 mM glutamine, 1 mM sodium pyruvate, 50 μg/ml Geneticin G418, and 0.2 mg/ml hygromycin B. Confluent cultures were passaged weekly. […] The RGT cell line expressing the mGluR2 receptors was stably transfected with the promiscuous G-protein, Galpha15 to change the signaling pathway to the mGlu2 receptor to one that could be easily measured through release of intracellular calcium. Thus, intracellular calcium levels were monitored before and after the addition of drugs on a Fluorometric Imaging Plate Reader (i.e. FLIPR, Molecular Devices). The following buffer was used throughout as an assay buffer: 10 mM KCl, 138 mM NaCl, 5 mM Ca Cl2, 1 mM MgCl2, 4 mM NaH2PO4, 10 mM Glucose, 10 mM HEPES, pH 7.4. Cells that had been plated 48 h prior at a density of 30-40,000 cells per well in a 96-well plate were loaded with a calcium-sensitive dye for 90 min at 25° C. Fluo-3 (2 mM in DMSO, Molecular Probes) were mixed with a equal volume of 10% pluronic acid in DMSO, and diluted to 8 μM into the buffer described above containing 10% fetal bovine serum to make the loading buffer. Following loading of the cells, the loading buffer was removed and replaced with assay buffer prior to drug addition and monitoring on the FLIPR.

[2] = system: mice; assay: Electroshock-induced seizures (tonic extensor seizures); assay type: in vivo, mouse; conditions: electroshock 30 minutes later, percentage of mice protected from seizures
Method: Application of electrical stimulation by corneal electrodes to mice can induce tonic hindlimb-extensor seizures. Blockade of tonic extensor seizures induced by electroshock is considered predictive for drugs which block seizure propagation and may be effective in preventing various seizures in humans, including epileptic seizures.
Vehicle or a dose of a test drug are administered to groups of 5 to 10 mice each. Thirty minutes later, electroshock (10 mA, 0.2 sec duration) is administered by transcorneal electrodes. […] The data are reported as the percentage of mice which are protected from seizures.

[3] = 10 nM Glutamate + 1 μM compound
[4] = 30 nM Glutamate + 1 μM compound
[5] = 100 nM Glutamate + 1 μM compound
[6] = 300 nM Glutamate + 1 μM compound
[7] = 10 μM Glutamate + 1 μM compound
[8] = 30 μM Glutamate + 1 μM compound

Structure (SMILES): COc1ccccc1Oc1cccc(N(Cc2cccnc2)S(=O)(=O)CC(F)(F)F)c1 [Example 1, N-(3-(2-Methoxyphenoxy)phenyl)-N-(2,2,2-trifluoroethylsulfonyl)pyrid-3-ylmethylamine]
- Emax [1, 3]: -0.3 ± 0.2%
- Emax [1, 4]: 2.2 ± 1.3%
- Emax [1, 5]: 1.5 ± 1.2%
- Emax [1, 6]: 42.5 ± 4.3%
- Emax ([1]; 1 μM Glutamate + 1 μM compound): 79.2 ± 14.6%
- Emax at 1 µM [1]: 0.1 ± 0.1%
- Emax ([1]; 3 μM Glutamate + 1 μM compound): 112 ± 10.3%
- Emax [1, 7]: 108 ± 10.7%
- % Maximal Glutamate Response (as defined by 30 μM Glutamate) mean ± SD ([1]; 20 μM compound + 0.5 μM L-glutamate): 85.5 ± 5.8%
- % Maximal Glutamate Response (as defined by 30 μM Glutamate) mean ± SD ([1]; 20 μM compound alone): 2.3 ± 0.8%
- Emax [1, 8]: 117 ± 4.3%

Structure (SMILES): COc1ccccc1Oc1ccc(N(Cc2cccnc2)S(=O)(=O)CC(F)(F)F)cc1Cl [Example 9, N-(4-(2-Methoxyphenoxy)-3-chlorophenyl)-N-(2,2,2-trifluoroethylsulfonyl)pyrid-3-ylmethylamine]
- Emax [1, 3]: 2.4 ± 0.3%
- Emax [1, 4]: 4.7 ± 0.4%
- Emax [1, 5]: 20.5 ± 4.3%
- Emax [1, 6]: 60 ± 10.6%
- Emax ([1]; 1 μM Glutamate + 1 μM compound): 93.1 ± 2.5%
- Emax at 1 µM [1]: 4.2 ± 2.7%
- Emax ([1]; 3 μM Glutamate + 1 μM compound): 102 ± 8.1%
- Emax [1, 7]: 103 ± 6.2%
- Emax [1, 8]: 108 ± 12.3%

Structure (SMILES): CCS(=O)(=O)N(Cc1cccnc1)c1cccc(-c2ccc(C#N)cc2)c1 [Example 590]
- Percent Protection ([2]; 30 mg/kg ip): 60%
- Percent Protection ([2]; 100 mg/kg ip): 100%

Structure (SMILES): CCS(=O)(=O)N(Cc1cccnc1F)c1ccc(Oc2ccc(F)cc2F)cc1 [Example 615, N-(4-(2,4-Difluorophenoxy)phenyl)-N-(ethanesulfonyl)-2-fluoropyrid-3-ylmethylamine]
- melting point: 110 to 112 °C

Results, then the compound that gave them:

- Emax ([1]; 1 nM APDC + 3 μM compound): 0.1 ± 0.7%
- Emax ([1]; 1 nM DCG IV + 3 μM compound): -0.1 ± 0.6%
- Emax ([1]; 30 nM APDC + 3 μM compound): 0.5 ± 1.5%
- Emax ([1]; 30 nM DCG IV + 3 μM compound): 11.1 ± 6.1%
- Emax ([1]; 100 nM APDC + 3 μM compound): 0.2 ± 0.6%
- Emax ([1]; 100 nM DCG IV + 3 μM compound): 83.3 ± 10.5%
- Emax ([1]; 300 nM APDC + 3 μM compound): 28.4 ± 1.7%
- Emax ([1]; 300 nM DCG IV + 3 μM compound): 133 ± 5.5%
- Emax ([1]; 1 μM APDC + 3 μM compound): 92 ± 3.4%
- Emax ([1]; 1 μM DCG IV + 3 μM compound): 141 ± 5.9%
- Emax ([1]; 3 μM APDC + 3 μM compound): 114 ± 0.8%
- Emax ([1]; 3 μM DCG IV + 3 μM compound): 153 ± 2.8%
- Emax at 3 µM ([1]; APDC series): 4.7 ± 0.4%
- Emax at 3 µM ([1]; DCG IV series): 3.7 ± 1.4%
- Emax ([1]; 10 μM APDC + 3 μM compound): 119 ± 4%
- Emax ([1]; 10 μM DCG IV + 3 μM compound): 148 ± 1.5%
- Emax ([1]; 30 μM APDC + 3 μM compound): 120 ± 10%
- Emax ([1]; 30 μM DCG IV + 3 μM compound): 138 ± 7.1%
Structure (SMILES): O=S(=O)(CC(F)(F)F)N(Cc1cccnc1)c1ccc(Oc2ccccc2)cc1 [Example 22, N-(4-(Phenoxy)phenyl)-N-(2,2,2-trifluoroethylsulfonyl)pyrid-3-ylmethylamine]

- melting point: 57.5 to 60 °C
Structure (SMILES): O=S(=O)(CC(F)(F)F)N(Cc1cccnc1)c1cccc(Oc2ccccc2O)c1 [Example 23, N-(3-(2-Hydroxyphenoxy)phenyl)-N-(2,2,2-trifluoroethylsulfonyl)pyrid-3-ylmethylamine]

- % Maximal Glutamate Response (as defined by 30 μM Glutamate) mean ± SD ([1]; 0.5 μM L-glutamate alone): 1.9 ± 1.0%
Structure (SMILES): N[C@@H](CCC(=O)O)C(=O)O [Glutamate, L-glutamate, reference compound]
